Like-named read-outs stand apart in the source and are kept apart here.
Key:
[1] = test system: rat heart; assay: Isolated perfused heart, normoperfused or hypoperfused (mechanically depressed): LVP, +dP/dtmax, -dP/dtmax; settings: atenolol; hypoperfusion
Method: Male Sprague-Dawley rats (500-550 g) were anesthetized with pentobarbital (40 mg/kg, i.p.) and treated with heparin (500 units, i.p.) for 15 minutes. Hearts were excised, rinsed in iced physiological saline ("PS") and perfused with PS (37° C.) via an aortic cannula at a constant rate of 18-20 ml/min. Perfusion pressure ranged from 50 to 60 mm Hg. The PS contained: NaCl, 118 mM; KCl, 4.7 mM; CaCl2, 2.5 mM; NaHCO3, 25 mM; KH2 PO4, 1.2 mM; MgSO4 1.2 mM; glucose 10 mM; and pyruvate 1.8 mM. The pH was maintained at 7.4 by gassing the PS with a 95% O2 /5% CO2 gas mixture. Platinum wire electrodes were inserted into the right atrium to allow pacing of the heart (300 contractions per minute) throughout the perfusion period. Developed left ventricular pressure (LVP) was measured with a saline-filled balloon inserted into the lumen of the left ventricle via the left atrium and attached by a polyethylene cannula to a pressure transducer. The pressure signal was electronically differentiated to obtain the maximum rates of left ventricular pressure development (+dP/dtmax) and relaxation (-dP/dtmax). Balloon volume was varied until the maximal obtainable dP/dt was attained. This optimal preload, ranging from 5 to 10 mm Hg, was maintained constant, permitting isovolumic contraction of the heart. Aortic perfusion pressure was monitored with another pressure transducer. All the LVP, +dP/dtmax, -dP/dtmax and aortic perfusion data were continually recorded on a multichannel polygraph. At the end of the experiment, the wet heart weights were determined; they ranged from 1.4 to 1.8 g.
After instrumentation, the hearts were normoperfused at 18-20 ml/min for 20 minutes, resulting in an aortic perfusion pressure of 50-60 mm Hg. Isoproterenol, adenosine, CGS-21680, DPCPX, atenolol, or a combination of these agents was administered for 1 to 2 minutes, via the aortic perfusion cannula, at 1/100th the perfusion flow rate, to achieve the stated PS concentrations. Isoproterenol was administered for only 5 seconds. To cause mechanical depression of the perfused hearts, the perfusion flow was lowered 5-6 ml/min. The resulting aortic perfusion pressure decreased to 20-30 mm Hg. The various agents either alone or in combination were administered via the PS to the hypoperfused hearts at 1/100th the perfusion flow rate, at the concentrations indicated.

[2] = test system: rat ventricular myocytes; assay: Contractile function of individual ventricular myocytes (line scan camera edge detection, paced at 0.5 Hz); type: cell-based; settings: for activation at 10 µM / inhibition at 2 µM: Rattus norvegicus, Ventricular myocyte; for +dL/dtmax, maximal rate of shortening / -dL/dtmax, maximal rate of relaxation / DS, duration of shortening / LC, maximum length change (shortening) with contraction / TPS, time-to-peak shortening / TR, time to 75% relaxation: mean ± SE, N = 6; for inhibition at 2 µM: PIA at 2 μM, ISO 0.2 μM
Method: Primary cultures of adult rat ventricular myocytes were prepared essentially according to previously described methods (Romano et al., Am. J. Physiol. 257:H1088 (1989)). Two male Sprague-Dawley rats (Charles River, Wilmington, Mass. or Harlan, Indianapolis, Ind.) were decapitated, and the hearts were rapidly excised and constant pressure (70 cm H2) and nonrecirculated) perfused for 10 minutes through the aortas with filtered (0.45 μm membrane filter) perfusing solution (NaCl, 118 mM; glucose, 10 mM; NaHCO3 25 mM; KCl, 4.69 mM; MgSO4 1.18 mM; and KH2 PO4, 1.18 mM; (pH 7.4)), to which […] was added, at 37° C. After equilibration, the hearts were constant pressure perfused with fresh physiological saline ("PS") containing no added Ca^2+ until spontaneous contractions ceased (i.e., ~30 seconds). The hearts were then perfused for 4-10 minutes in a nonrecirculating manner with PS containing 0.73 mg/ml collagenase, 0.16 mg/ml hyaluronidase, 1 mg/ml recrystallized bovine serum albumin ("BSA") and 48.4 μM Ca^2+ at a rate of 3-4 ml/min/heart. Ventricles, free of atria, were removed from the perfusion system, cut into 8 pieces and placed in a 50 ml Erlenmeyer flask with 5 ml of PS containing 0.73 mg/ml collagenase, 0.16 mg/ml hyaluronidase, 2.5 mg/ml BSA, and 50 μM Ca^2+ (incubation solution). The flask was gently shaken (40 cycles/min) in a reciprocating water bath with continuous gassing (95% O2, 5% CO2) for 7 minutes at 37° C. The incubation solution was aspirated and this shaking procedure was repeated with fresh incubation solution 3-5 times depending on the likelihood that the tissue was ready to dissociate. After the final incubation period, the solution was aspirated and replaced with 10 ml of fresh incubation solution. The flask was then shaken rapidly (120 cycles/min) for 10 minutes with gassing to dissociate the myocytes. The flask contents were filtered through a 250 μm nylon mesh into a 50 ml polypropylene centrifuge tube, to which 40 ml of PS containing 5.95 mg/ml BSA and 99.7 μm Ca^2+ (wash solution) was gradually added.
The myocytes were allowed to settle for 15 minutes, and the upper two thirds of the wash solution was aspirated. Upon the addition of 30-35 ml of wash solution, this settling step was repeated. The wash solution was aspirated and the myocyte pellet was resuspended in 10 ml of minimum essential medium ("MEM"). The myocyte suspension was allowed to settle for 5 minutes and then brought to a final volume of 22 ml with MEM. Two milliliters of the myocyte suspension was seeded onto each of 60 mm culture dishes containing 2 ml of MEM.
The contractile function of individual myocytes was assessed by dispersing 50-100 cells in a 506 μl myocyte chamber (11×23×2 mm deep). The chamber (FIG. 1) was continuously suffused (850 μl/min) with fresh suffusion solution ("SS") in mM: 136.4 NaCl, 4.7 KCl, 1.0 CaCl2, 10 hydroxyethylpiperzine-ethanesulfonicacid (HEPES), 1.0 NaHCO3, 1.2 MgSO4, 1.2 KH2 PO4, 10 glucose, 0.6 ascorbate, 1.0 pyruvate) at 20° C. The chamber was mounted on an inverted microscope stage and contained platinum wire electrodes for initiating myocyte contraction at 0.5 Hz (voltage 10% above threshold for 5 msec duration).
The image of the myocyte was projected via an inverted microscope at 300× onto a line scan camera (Fairchild, Model 1600R) containing a linear array (1×3456) of photodiodes. When aligned with the longitudinal axis of the cell the camera detected the movement of the 2 ends of the myocyte upon contraction (shortening and relengthening). […] When the myocyte was transilluminated, both ends of the cell were easily discriminated. Myocyte length and length change with respect to time for a single contraction was measured by determining the pixels in which the appropriate transitions between light and dark occurred. The line scan camera was calibrated with a stage micrometer scaled in 10 μm divisions. The signals from the camera were directed to a Hewlett Packard computer (Model Vectra RS/20C). […]

[3] = test system: ventricular myocyte membrane adenylyl cyclase; assay: Adenylyl cyclase activity of ventricular myocyte membranes; type: biochemical, rat
Method: After a 3-4 hour incubation period, myocytes were harvested by placing the culture dishes on ice; aspirating and discarding the culture medium; scraping the attached cells into 1 ml of ice cold buffer (pH 7.4) containing 10 mM HEPES and 1 mM dithiothreitol (DTT); and transferring the mixture to a 40 ml centrifuge tube. The culture dishes were rinsed twice with buffer, and the rinses were added to the centrifuge tube. The myocytes were centrifuged at 45,000 x g for 45 minutes and the supernatant was discarded. The pellet was resuspended in 40 mM HEPES (pH 7.4) to yield 3.5-4 mg protein/ml and homogenized with a small clearance Dounce tissue grinder (8 strokes). The membranes were centrifugated as described above, resuspended (3-4 mg protein/ml) in 40 mM HEPES (pH 7.4), and assayed for adenylyl cyclase activity immediately or stored at -80° C. and assayed within 10 days.
The assay system used to measure adenylyl cyclase activity minimizes the formation of endogenous adenosine. The assay used was essentially as described by Romano et al. (supra). Myocyte membranes (15-25 μg protein) were incubated in 50 μl of a buffer containing 40 mM HEPES (pH 7.4), 5 mM MgCl2, 1 mM DTT, 5.5 mM KCl, 0.1 mM 2'-deoxy-cAMP (dcAMP), 0.1 mM 2'-deoxy ATP (dATP), 20 mM phosphoenolpyruvate, 2 units pyruvate kinase, 0.25 units adenosine deaminase, 1 mM ascorbic acid, 100 mM NaCl, 0.1 mM ethyleneglycol-bis (β-aminoethylether) N,N,N',N',-tetroaceticacid (EGTA), 10 μM guanosine 5'-triphosphate (GTP), and ~2×10^6 counts/minutes of [α-^32 P]dATP for 20 minutes at 30° C. The reaction was stopped by adding 40 μl of a solution containing 2% sodium dodecyl sulfate (SDS), 45 mM ATP, 1.3 mM cAMP, and [^3 H]dcAMP (~4000 count/min) and by boiling for 2 minutes.

[4] = Table 6, 10^-5 M SHA-082, 10^-5 M NECA, 10^-4 M adenosine, 2 × 10^-7 M DPCPX, 10^-5 M CGS-15943
[5] = Table 5, CGS-21680 and/or CGS-15943 at 10^-5 M, 10 min
[6] = Table 3, 1 μM PIA, 0.1 μM ISO, 0.1 μM DPCPX added sequentially every 8-10 min, maximum responses

CC(C)NCC(O)COc1ccc(CC(N)=O)cc1 (stereo not drawn) [atenolol]
effect on the inotropic responses induced by adenosine or adenosine plus DPCPX [1]: did not affect | effect on the isoproterenol elicited contractile responses [1]: completely prevented

CCNC(=O)[C@H]1O[C@@H](n2cnc3c(N)ncnc32)[C@H](O)[C@@H]1O [NECA, N-ethylcarboxamidoadenosine]
activation at 10 µM ([2]; read-out: increase in DS): 21% | activation at 10 µM ([2]; read-out: increase in LC): 24% | activation at 10 µM ([2]; read-out: increase in TPS): 20% | activation at 10 µM ([2]; read-out: increase in TR): 28% | +dL/dtmax, maximal rate of shortening [2, 4]: 203 ± 9 μm/msec | -dL/dtmax, maximal rate of relaxation [2, 4]: 149 ± 12 μm/msec | DS, duration of shortening [2, 4]: 350 ± 15 ms | LC, maximum length change (shortening) with contraction [2, 4]: 21 ± 2 μm | TPS, time-to-peak shortening [2, 4]: 140 ± 5 ms | TR, time to 75% relaxation [2, 4]: 340 ± 12 ms | contractile responses in the presence of 10 μM CGS-15943 ([2]; agonist at 10 μM): not observed | increase in adenylyl cyclase activity ([3]; NECA 0 to 1 mM (FIG. 10)): approximately two-fold | EC50 ([3]; without DPCPX, read-out: EC50 for activation of cyclase): 17 ± 5.7 µM

N=c1[nH]c2ccc(Cl)cc2c2nc(-c3ccco3)nn12 [CGS-15943, 9-chloro-2-(2-furanyl)-5,6-dihydro-1,2,4-triazolo-(1,5-C)quinazolin-5-imine]
effect on the adenosine induced increases in contractile variables ([2]; 10 μM CGS-15943, 100 μM adenosine + 0.2 μM DPCPX): inhibited | effect on the increase in myocyte contractility produced by CGS-21680 ([2]; CGS-15943 (10 μm), CGS-21680 (10 μm)): prevented | +dL/dtmax, maximal rate of shortening [2, 5]: 146 ± 10 μm/msec | -dL/dtmax, maximal rate of relaxation [2, 5]: 123 ± 11 μm/msec | DS, duration of shortening [2, 5]: 331 ± 15 ms | LC, maximum length change (shortening) with contraction [2, 5]: 18 ± 2 μm | TPS, time-to-peak shortening [2, 5]: 122 ± 3 ms | TR, time to 75% relaxation [2, 5]: 285 ± 10 ms | effect on the CGS-21680 increase in cyclase activity ([3]; 10 μM CGS-15943, 0.1 μM DPCPX present): prevented | effect on the NECA increase in membrane cyclase activity ([3]; CGS-15943 at 10 μM, both in the absence and presence of DPCPX): prevented

CC(Cc1ccccc1)Nc1ncnc2c1ncn2[C@@H]1O[C@H](CO)[C@@H](O)[C@H]1O (stereo partly drawn) [PIA, phenylisopropyladenosine]
effect on ventricular myocyte contractile variables ([2]; PIA at 1 μM alone): no effect | inhibition at 2 µM ([2]; read-out: reduction of the ISO-induced decrease in DS): 47% | inhibition at 2 µM ([2]; read-out: reduction of the ISO-induced decrease in TPS): 82% | inhibition at 2 µM ([2]; read-out: reduction of the ISO-induced decrease in TR): 37% | inhibition at 2 µM ([2]; read-out: reduction of the ISO-induced increase in +dL/dtmax): 60% | inhibition at 2 µM ([2]; read-out: reduction of the ISO-induced increase in -dL/dtmax): 78% | inhibition at 2 µM ([2]; read-out: reduction of the ISO-induced increase in LC): 91% | +dL/dtmax, maximal rate of shortening [2, 6]: 115 ± 17 μm/msec | -dL/dtmax, maximal rate of relaxation [2, 6]: 85 ± 21 μm/msec | DS, duration of shortening [2, 6]: 374 ± 23 ms | LC, maximum length change (shortening) with contraction [2, 6]: 16 ± 2 μm | TPS, time-to-peak shortening [2, 6]: 153 ± 5 ms | TR, time to 75% relaxation [2, 6]: 308 ± 8 ms

Cn1c(=O)c2c(nc(C=Cc3cccc(Cl)c3)n2C)n(C)c1=O [CSC, 8-(3-chlorostyryl)caffeine]
effect on the increase in the contractile variables elicited by 1 μM CGS-21680 ([2]; CSC at 1 μM, in the presence of 0.2 μM DPCPX): prevented

Source: US5629298A, “Adenosine as a positive inotrop in the compromised heart” (University of Massachusetts Medical Center, priority 1995, dated 1997)
